Patent US12611415B2, “Methods and compounds for treatment of metabolic disease” (Monash University, priority 2019, dated 2026)
Entries after “also recorded” stand apart in the source; their conditions may differ.

Columns and labels:
Format in all cases: in vivo, mouse
[1] = Systemic (plasma) exposure of celecoxib after oral gavage; conditions: oral gavage 29 mg/kg in lipid based formulation (Compound I-1 equivalent to 8.3 mg/kg celecoxib), fasted mice
Method: To evaluate the systemic exposure of celecoxib and celecoxib prodrug Compound I-1, 29 mg/kg celecoxib or celecoxib prodrug (equivalent to 8.3 mg/kg celecoxib) were administered in a self-emulsifying lipid-based formulation consisting of oleic acid (Sigma Aldrich, Australia)/Cremophor RH40 (Sigma Aldrich, Australia)/ethanol (40:52.6:7.4, w/w/w). Drug and prodrug concentrations in the formulations were confirmed using HPLC-MS/MS as described below.
In addition to evaluating lymph uptake of celecoxib and celecoxib prodrug, a pharmacokinetic dose-determining study was conducted to determine a dose of celecoxib and celecoxib prodrug that produce higher lymphatic uptake but lower systemic plasma celecoxib exposure (i.e. lower plasma concentrations over time) after administration of the prodrug. […]
For HPLC-MS/MS analysis of celecoxib in plasma after dosing celecoxib or celecoxib prodrug Compound I-1, 200 μL acetonitrile was added to 20 μL samples of plasma and 5 μL of a 1 μg/mL solution of internal standard (5,5-diethyl-1,3-diphenyl-2-iminobarbituric acid) in acetonitrile. Samples were vortexed for 30 seconds and centrifuged at 4,500 g for 5 min, and 80 μL supernatant was analyzed for celecoxib concentration by HPLC-MS. […]

[2] = test system: mice with HFD-induced obesity; assay: Dose comparison study of Compound I-1 and celecoxib in HFD mice (FIG. 7)
From the text: Timelines and treatment groups are shown in panel a. (b-c) n=8 (CFD), 8 (CP90), 4, (CP30), 7 (CP10), 4 (Cele30), 5 (Cele 10), 6 (Cele3) and 4 (HFD). (c-d) n=7 (CFD), 7 (CP90), 5, (CP30), 7 (CP10), 5 (Cele30), 7 (Cele 10), 6 (Cele3) and 7 (HFD). (e-f) n=12 (CFD), 8 (CP90), 6 (CP30), 7 (CP10), 7 (Cele30), 8 (Cele 10), and 6 (Cele3), 8 (HFD). (g-h) n=10 (CFD), 8 (CP90), 6 (CP30), 7 (CP10), 6 (Cele30), 8 (Cele 10), and 7 (Cele3), 11 (HFD). (i-j) n=4 (CFD), 7 (CP 90), 7 (CP 10), 7 (Cele 10) and 6 (Cele 3). Statistical differences from one-way ANOVA, compared to CFD (baseline). *p<0.05, **p<0.01, ***p<0.005, ****p<0.001.

[3] = test system: mice with chronic HFD-induced obesity; assay: Chronic HFD-induced obesity model, Compound I-1 versus CFD switch (FIG. 8)
From the text: Details regarding treatment times and controls are shown in panel (a). Panels b-e show lymph “leakage” into surrounding VAT due to HFD-induced remodelling of the mesenteric lymphatics, as measured by intramucosal injection of Evans blue dye and lymphangiography. (f-g) n=2 (CFD), 7 (HFD), 8 (Cele-pro (CP30)) and 5 (CFD switch).

[4] = Compound I-1 at doses as low as 10 mg/kg (~3 mg/kg celecoxib), ~10-fold lower dose relative to celecoxib
[5] = various doses of Compound I-1 versus higher corresponding doses of celecoxib
[6] = chronic HFD-induced obesity models, Cele-pro (CP30)

**Q.** Which “plasma concentrations of celecoxib, compared to an equal mass of the parent drug” value [1] does the source give for `CCCCCCCCCCCCCCCC(=O)OCC(COC(=O)CCCCCCCCCCCCCCC)OC(=O)CCCCCCCCC(=O)Oc1cc(C)cc(C)c1C(C)(C)CC(=O)NS(=O)(=O)c1ccc(-n2nc(C(F)(F)F)cc2-c2ccc(C)cc2)cc1` [Compound I-1] here?
**A.** lower

**Q.** And the VAT lymph leakage [2, 4]?
**A.** superior; also recorded: reverses, more effectively

**Q.** What about the “restoration of glycaemic control” value [2, 4] of the same molecule?
**A.** superior

**Q.** And the “reversal of VAT lymphangiogenesis (lymph vessel branching)” value [2, 4]?
**A.** superior; also recorded: reverses, more effectively

**Q.** What about the “reducing fasting plasma triglycerides” value ([2]; compared with a 3-fold higher dose of celecoxib) of the same molecule?
**A.** superior

**Q.** What about the “HFD-induced obesity, weight” value [2, 5] of the same molecule?
**A.** reverses, more effectively

**Q.** What about the “changes to lymph composition” value [2, 5] of the same molecule?
**A.** reverses, more effectively

**Q.** What about the insulin resistance [2, 5] of the same molecule?
**A.** reverses, more effectively

**Q.** What about the oral glucose tolerance [2, 5] of the same molecule?
**A.** reverses, more effectively

**Q.** And the “effects on mice on a high-fat diet relative to animals switched to a chow-fat diet” value ([3]; Cele-pro (CP30) versus CFD switch)?
**A.** comparable

**Q.** What about the VAT inflammation [3, 6] of the same molecule?
**A.** reverses

**Q.** What about the insulin resistance [3, 6] of the same molecule?
**A.** reverses

**Q.** And the lymphatic dysfunction [3, 6]?
**A.** reverses
